“Also recorded” adds a separate entry of the source.
Tests used:
Conditions in all cases: 37 °C, up to 72 h
[1] = tested on: 20S+11S; experiment: 20S proteasome with 11S regulator, both isolated from mouse brains, in Tris-HCl buffer pH = 7.5
[2] = tested on: 26S proteasome; experiment: 26S proteasome isolated from mouse brains, in Tris-HCl buffer pH = 7.5 with 5 mM ATP-MgCl2
[3] = tested on: 26S+11S; experiment: 26S proteasome with 11S regulator, both isolated from mouse brains, in Tris-HCl buffer pH = 7.5 with 5 mM ATP-MgCl2
[4] = tested on: 20S proteasome; experiment: 20S proteasome isolated from mouse brains, in 50 mM Tris-HCl, 1 mM EDTA, 1 mM DTT, 10% glycerol, pH = 7.5

| Substance | cleaved bond [1] | cleaved bond [2] | cleaved bond [3] | cleaved bond [4] |
| --- | --- | --- | --- | --- |
| Dabcyl-KQ5GD-EDANS | Q2-Q3, major; also recorded: Q4-Q5, major | Q2-Q3, major; also recorded: Q4-Q5, major | Q2-Q3, major; also recorded: Q4-Q5, major | Q2-Q3, major; also recorded: Q4-Q5, major |
| Dabcyl-KQ10PPD-EDANS | Q2-Q3, major; also recorded: Q3-Q4, major | Q2-Q3, major; also recorded: Q3-Q4, major | Q2-Q3, major; also recorded: Q3-Q4, major | Q3-Q4, major, 2 h; also recorded: Q2-Q3, major, 2 h |

Reference: article PMC10487437 (International Journal of Molecular Sciences, 2023)
